Experimental data published in patent US10954252B1, “Inhibitors of human immunodeficiency virus replication” (ViiV HEALTHCARE UK (NO.5) LIMITED, priority 2017, dated 2021).

Columns and labels:
[1] = system: recombinant NL4-3 virus (nef section replaced with Renilla luciferase gene) in MT-2 cells; assay: HIV cell culture assay (antiviral activity, luciferase readout); assay type: cell-based; conditions: MT-2 cells infected for 4-5 days with recombinant NL4-3 luciferase virus
Experimental: HIV cell culture assay—MT-2 cells, 293T cells and the proviral DNA clone of NL4-3 virus were obtained from the NIH AIDS Research and Reference Reagent Program. MT-2 cells were propagated in RPMI 1640 media supplemented with 10% heat inactivated fetal bovine serum (FBS), 100 μg/ml penicillin G and up to 100 units/mL streptomycin. The 293T cells were propagated in DMEM media supplemented with 10% heat inactivated FBS, 100 μg/mL penicillin G and 100 μg/mL streptomycin. A recombinant NL4-3 proviral clone, in which a section of the nef gene was replaced with the Renilla luciferase gene, was used to make the reference virus used in these studies. The recombinant virus was prepared through transfection of the recombinant NL4-3 proviral clone into 293T cells using Transit-293 Transfection Reagent from Mirus Bio LLC (Madison, Wis.). Supernatent was harvested after 2-3 days and the amount of virus present was titered in MT-2 cells using luciferase enzyme activity as a marker by measuring luciferase enzyme activity. Luciferase was quantitated using the EnduRen Live Cell Substrate from Promega (Madison, Wis.). Antiviral activities of compounds toward the recombinant virus were quantified by measuring luciferase activity in MT-2 cells infected for 4-5 days with the recombinant virus in the presence of serial dilutions of the compound.
The 50% effective concentration (ECs) was calculated by using the exponential form of the median effect equation where (Fa)=1/[1+(ED50/drug conc.)^m] (Johnson Va., Byington RT. Infectivity Assay. In Techniques in HIV Research. ed. Aldovini A, Walker BD. 71-76. New York: Stockton Press. 1990).

[2] = Compound cytotoxicity, XTT-based colorimetric assay; assay type: cell-based; conditions: human, uninfected MT2 cells
Experimental: Compound cytotoxicity and the corresponding CC50 values were determined using the same protocol as described in the antiviral assay except that uninfected cells were used. Cytotoxicity was assessed on day 4 in uninfected MT2 cells by using a XTT (2,3-bis[2-Methoxy-4-nitro-5-sulfophenyl]-2H-tetrazolium-5-carboxyanilide inner salt)-based colorimetric assay (Sigma-Aldrich, St Louis, Mo.). Biological data for select compounds of the invention are contained in Table 1 and Table 1a

| Compound | EC50 ([1]; Renilla, NL43, Table 1a) [nM] | CC50 at 4 days ([2]; Table 1a, day 4, XTT) [nM] | other results |
| --- | --- | --- | --- |
| CC(C)n1nc(NS(C)(=O)=O)c2c(Cl)ccc(-n3c([C@H](Cc4cc(F)cc(F)c4)NC(=O)Cn4nc(C(F)F)c5c4C(F)(F)[C@@H]4C[C@H]54)nc4ncccc4c3=O)c21 (mixture of isomers) [Example 43.2, N-[(1S)-1-{3-[4-chloro-3-methanesulfonamido-1-(propan-2-yl)-1H-indazol-7-yl]-4-oxo-3H,4H-pyrido[2,3-d]pyrimidin-2-yl}-2-(3,5-difluorophenyl)ethyl]-2-[(2S,4R)-9-(difluoromethyl)-5,5-difluoro-7,8-diazatricyclo[4.3.0.0^2,4]nona-1(6),8-dien-7-yl]acetamide] | 0.132 | > 10000 | – |
| Cn1nc(NS(C)(=O)=O)c2c(Cl)ccc(-c3cc4cc[nH]c4nc3[C@@H](Cc3cc(F)cc(F)c3)NC(=O)Cn3nc(C(F)F)c4c3C(F)(F)[C@@H]3C[C@H]43)c21 (single isomer, unassigned) [Example 87] | 72.4 | > 10000 | – |
| Cc1cccc2nc([C@H](Cc3cc(F)cc(F)c3)NC(=O)Cn3ccc(C4CC4)n3)n(-c3ccc(Cl)c4c(NS(C)(=O)=O)nn(C)c34)c(=O)c12 (single isomer, unassigned) [Example 133] | – | > 1000 | EC50 ([1]; Table 1a): 127 nM |
| COc1cc(F)c2c(=O)n(-c3ccc(Cl)c4c(NS(C)(=O)=O)nn(C)c34)c([C@H](Cc3cc(F)cc(F)c3)NC(=O)Cn3nc(C(F)F)c4c3C(F)(F)[C@@H]3C[C@H]43)nc2c1 (single isomer, unassigned) [Example 186] | – | > 1000 | EC50 ([1]; Table 1a): 0.072 nM |
| COc1cc(F)c2c(=O)n(-c3ccc(Cl)c4c(NS(C)(=O)=O)nn(C)c34)c([C@H](Cc3cc(F)cc(F)c3)NC(=O)Cn3ccc(C4CC4)n3)nc2c1 (single isomer, unassigned) [Example 189] | – | > 1000 | EC50 ([1]; Table 1a): 6.46 nM |
| Cn1ccc2nc([C@H](Cc3cc(F)cc(F)c3)NC(=O)Cn3nc(C(F)F)c4c3C(F)(F)[C@@H]3C[C@H]43)c(-c3ccc(Cl)c4c(NS(C)(=O)=O)nn(C)c34)cc21 (single isomer, unassigned) [Example 119] | 0.0924 | > 10000 | – |
| Cn1nc(NS(C)(=O)=O)c2c(Cl)ccc(-n3c([C@H](Cc4cc(F)cc(F)c4)NC(=O)Cn4nc(C(F)F)c5c4C(F)(F)[C@@H]4C[C@H]54)nc4c(F)cc(F)cc4c3=O)c21 (single isomer, unassigned) [Example 74] | 0.0513 | > 1000 | – |
| N#Cc1ccc(-c2cc3[nH]ncc3nc2[C@H](Cc2cc(F)cc(F)c2)NC(=O)Cn2nc(C(F)F)c3c2C(F)(F)[C@@H]2C[C@H]32)cc1F [Example 10.4, N—((S)-1-(6-(4-cyano-3-fluorophenyl)-1H-pyrazolo[4,3-b]pyridin-5-yl)-2-(3,5-difluorophenyl)ethyl)-2-((3bS,4aR)-3-(difluoromethyl)-5,5-difluoro-3b,4,4a,5-tetrahydro-1H-cyclopropa[3,4]cyclopenta[1,2-c]pyrazol-1-yl)acetamide] | – | – | EC50 ([1]; Renilla, NL43, Table 1): 1150 nM; CC50 at 4 days ([2]; Table 1, day 4, XTT): 8240 nM |
| O=C(Cn1nc(C(F)F)c2c1C(F)(F)[C@@H]1C[C@H]21)N[C@H](Cc1cc(F)cc(F)c1)c1nc2cc[nH]c2cc1-c1ccc(S(=O)(=O)N2CCOCC2)cc1 [Example 66, 2-((3bS,4aR)-3-(difluoromethyl)-5,5-difluoro-3b,4,4a,5-tetrahydro-1H-cyclopropa[3,4]cyclopenta[1,2-c]pyrazol-1-yl)-N—((R)-2-(3,5-difluorophenyl)-1-(6-(4-(morpholinosulfonyl)phenyl)-1H-pyrrolo[3,2-b]pyridin-5-yl)ethyl)acetamide] | 1540 | 10000 | – |
| CC(C)c1ccc(-n2c([C@H](Cc3cc(F)cc(F)c3)NC(=O)Cc3c[nH]c4ccc(O)cc34)nc3cc(C#N)ccc3c2=O)cn1 [Example 162, (S)—N-(1-(7-cyano-3-(6-isopropylpyridin-3-yl)-4-oxo-3,4-dihydroquinazolin-2-yl)-2-(3,5-difluorophenyl)ethyl)-2-(5-hydroxy-1H-indol-3-yl)acetamide] | 6.56 | > 10000 | – |
| Cn1nc(NS(C)(=O)=O)c2c(Cl)ccc(-c3cc4cc[nH]c4nc3[C@H](Cc3cc(F)cc(F)c3)NC(=O)Cn3nc(C(F)F)c4c3C(F)(F)[C@@H]3C[C@H]43)c21 (single isomer, unassigned) [Example 84] | 0.94 | > 10000 | – |
| O=C(Cn1nc(C(F)F)c2c1C(F)(F)[C@@H]1C[C@H]21)NC(Cc1cc(F)cc(F)c1)c1ncc2nc[nH]c2c1-c1ccc2scnc2c1 (single isomer, unassigned) [Example 7.1] | – | – | EC50 ([1]; Table 1): 140 nM; CC50 at 4 days ([2]; Table 1, day 4, XTT): 16200 nM |
| COc1c(F)cc2c(=O)n(-c3ccc(Cl)c4c(NS(C)(=O)=O)nn(C)c34)c([C@H](Cc3cc(F)cc(F)c3)NC(=O)Cn3nc(C(F)F)c4c3C(F)(F)[C@@H]3C[C@H]43)nc2c1F (mixture of isomers) [Example 114] | 0.071 | > 1000 | – |
| O=C(Cn1nc(C(F)F)c2c1C(F)(F)[C@@H]1C[C@H]21)N[C@@H](Cc1cc(F)cc(F)c1)c1nc2cn[nH]c2cc1-c1ccc2c(c1)C(=O)NC2 [Example 10.14, 2-((3bS,4aR)-3-(difluoromethyl)-5,5-difluoro-3b,4,4a,5-tetrahydro-1H-cyclopropa[3,4]cyclopenta[1,2-c]pyrazol-1-yl)-N—((S)-2-(3,5-difluorophenyl)-1-(6-(3-oxoisoindolin-5-yl)-1H-pyrazolo[4,3-b]pyridin-5-yl)ethyl)acetamide] | – | – | EC50 ([1]; Renilla, NL43, Table 1): 2.5 nM; CC50 at 4 days ([2]; Table 1, day 4, XTT): > 10000 nM |
| Cn1nc(NS(C)(=O)=O)c2c(Cl)ccc(-n3c([C@H](Cc4cc(F)cc(F)c4)NC(=O)Cn4nc(C(F)F)c5c4CCC5)nc4c(F)cc(F)cc4c3=O)c21 (single isomer, unassigned) [Example 99] | – | > 1000 | EC50 ([1]; Table 1a): 17.8 nM |
| Cn1nc(NS(C)(=O)=O)c2c(Cl)ccc(-c3cc4cc[nH]c4nc3C(Cc3cc(F)cc(F)c3)NC(=O)Cn3nc(C(F)F)c4c3C(F)(F)[C@@H]3C[C@H]43)c21 (single isomer, unassigned) [Example 83] | – | > 10000 | EC50 ([1]; Table 1a): 1.02 nM |
| Cn1nc(NS(C)(=O)=O)c2c(Cl)ccc(-c3cc4ccccc4nc3[C@H](Cc3cc(F)cc(F)c3)NC(=O)Cc3c[nH]c4ccc(O)cc34)c21 [Example 10.17] | – | – | EC50 ([1]; Renilla, NL43, Table 1): 2.4 nM; CC50 at 4 days ([2]; Table 1, day 4, XTT): > 10000 nM |
| Cn1nc(NS(C)(=O)=O)c2c(Cl)ccc(-c3cc4[nH]cc(Cl)c4nc3C(Cc3cc(F)cc(F)c3)NC(=O)Cn3nc(C(F)F)c4c3C(F)(F)[C@@H]3C[C@H]43)c21 (some centres unmarked) [Example 88] | 0.61 | > 10000 | – |
| CC(C)c1ccc(-n2c([C@H](Cc3cc(F)cc(F)c3)NC(=O)Cn3nc(C(F)F)c4c3C(F)(F)[C@@H]3C[C@H]43)nc3ncccc3c2=O)cc1 [Example 35, 2-[(2S,4R)-9-(difluoromethyl)-5,5-difluoro-7,8-diazatricyclo[4.3.0.0^2,4]nona-1(6),8-dien-7-yl]-N-[(1S)-2-(3,5-difluorophenyl)-1-{4-oxo-3-[4-(propan-2-yl)phenyl]-3H,4H-pyrido[2,3-d]pyrimidin-2-yl}ethyl]acetamide] | 16.3 | 1580 | – |
| Cn1nc(NS(C)(=O)=O)c2cccc(-n3c(C(Cc4cc(F)cc(F)c4)NC(=O)Cn4nc(C(F)F)c5c4C(F)(F)[C@@H]4C[C@H]54)nc4ccccc4c3=O)c21 (single isomer, unassigned) [Example 69] | 78.3 | > 1000 | – |
| NC(=O)c1cc(-n2c([C@H](Cc3cc(F)cc(F)c3)NC(=O)Cn3nc(C(F)F)c4c3C(F)(F)[C@@H]3C[C@H]43)nc3ncccc3c2=O)ccc1F [Example 33, 5-{2-[(1S)-1-{2-[(2S,4R)-9-(difluoromethyl)-5,5-difluoro-7,8-diazatricyclo[4.3.0.0^2,4]nona-1(6),8-dien-7-yl]acetamido}-2-(3,5-difluorophenyl)ethyl]-4-oxo-3H,4H-pyrido[2,3-d]pyrimidin-3-yl}-2-fluorobenzamide] | 3.92 | > 10000 | – |
| CC(C)c1ccc(-n2c([C@H](Cc3cc(F)cc(F)c3)NC(=O)Cn3nc(C(F)F)c4c3C(F)(F)[C@@H]3C[C@H]43)nc3ncccc3c2=O)cc1 [Example 10.35] | – | – | EC50 ([1]; Renilla, NL43, Table 1): 1.7 nM; CC50 at 4 days ([2]; Table 1, day 4, XTT): 1900 nM |
